Test systems include NCI-H23; LOX IMVI; COLO 205; Malme-3M; CCRF-CEM; HCT-116; UACC-257; SF-295; HOP-92; OVCAR-5; HCT-15; A498; HOP-62; IGROV-1; SK-MEL-2; OVCAR-4; SW-620.
What all share (assay): growth of human tumour cells (NCI), 48 h

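Test compounds were applied to cells in 96-well plates for 48 hours at 5 doses. GI50 = concentration required for 50% inhibition of growth.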 Activity calls are given as the source filed them. Cut-off read from the data, not from the text of the source: active = GI50 up to about 1.1 µM and inactive = higher.

With `CC1(C)C=N[N+]2(C)C3C=CC(CC3)C12` (centres undefined), the GI50 in the assay on NCI-H23, with LOX IMVI, with COLO 205, in the assay on Malme-3M, with CCRF-CEM and with HCT-116 was > 100 µM (inactive) throughout. Further, the GI50 is > 100 µM (inactive) in the assay on UACC-257; > 100 µM (inactive) with SF-295; > 100 µM (inactive) in the assay with HOP-92; > 100 µM (inactive) with OVCAR-5; greater than 100 µM with HCT-15; > 100 µM (inactive) in the assay on A498. The GI50 with HOP-62, in the assay with IGROV-1 and with SK-MEL-2 was > 100 µM (inactive) in each case.
Turning to `O=C(O)c1ccccc1NC(=O)C1CCCCC1`, the GI50 in the assay on LOX IMVI, in the assay on COLO 205, in the assay with Malme-3M, in the assay with CCRF-CEM, in the assay with HCT-116 and in the assay with UACC-257 was > 100 µM (inactive) throughout. Besides, the GI50 in the assay with SF-295 was > 100 µM (inactive); with HOP-92, 6.08 µM (inactive); in the assay on OVCAR-5, > 100 µM (inactive); in the assay on HCT-15 it was greater than 100 µM; in the assay with A498 it was 31.8 µM (inactive); with OVCAR-4, > 100 µM (inactive). In addition, the GI50 in the assay on HOP-62, with SW-620, in the assay on IGROV-1 and in the assay on SK-MEL-2 was > 100 µM (inactive) each time.
`COc1ccc2cc(C(=O)c3ccccc3C(=O)O)ccc2c1`: the GI50 in the assay on NCI-H23, in the assay with LOX IMVI, in the assay on COLO 205, in the assay with Malme-3M, with CCRF-CEM and with HCT-116 was > 100 µM (inactive) throughout. Besides, the GI50 was > 100 µM (inactive) in the assay on UACC-257; > 100 µM (inactive) in the assay with SF-295; > 100 µM (inactive) in the assay on OVCAR-5; greater than 100 µM in the assay on HCT-15; > 100 µM (inactive) in the assay on A498; > 100 µM (inactive) with OVCAR-4. Also, the GI50 in the assay on HOP-62, with SW-620, in the assay with IGROV-1 and in the assay with SK-MEL-2 was > 100 µM (inactive) in each case.
With `COC(=O)/C(=N\NC(=O)C[N+](C)(C)C)C(C(=O)OC)C(=O)C(=O)Nc1ccccc1C(N)=O` (centres undefined), the GI50 with NCI-H23, with LOX IMVI, in the assay with COLO 205, with Malme-3M, with CCRF-CEM and in the assay on HCT-116 was > 100 µM (inactive) in each case. Moreover, the GI50 in the assay with UACC-257 was > 100 µM (inactive); in the assay with SF-295, > 100 µM (inactive); in the assay with OVCAR-5, > 100 µM (inactive); with HCT-15, greater than 100 µM; in the assay on A498, > 100 µM (inactive); in the assay with OVCAR-4, > 100 µM (inactive). Also, the GI50 in the assay on HOP-62, in the assay on SW-620, with IGROV-1 and in the assay with SK-MEL-2 was > 100 µM (inactive) each time.
Take `N#CCCN(CCC#N)c1ccc(C(=O)NN)cc1`: the GI50 with NCI-H23, in the assay with LOX IMVI, in the assay with COLO 205, with Malme-3M, in the assay with CCRF-CEM and with HCT-116 was > 100 µM (inactive) in each case. Moreover, the GI50 with UACC-257 is > 100 µM (inactive); with SF-295 it was > 100 µM (inactive); with HOP-92 it was > 100 µM (inactive); with OVCAR-5, > 100 µM (inactive); with HCT-15, greater than 100 µM; with A498 it was > 100 µM (inactive). The GI50 with OVCAR-4, in the assay with HOP-62, in the assay on SW-620 and in the assay on IGROV-1 was > 100 µM (inactive) in each case.
`CCC1(N=[N+]=[N-])C(=O)c2ccccc2N(C)C1=O` (centres undefined): the GI50 in the assay with NCI-H23, in the assay with LOX IMVI, with COLO 205, with Malme-3M, with CCRF-CEM and in the assay on HCT-116 was > 100 µM (inactive) in each case. Also, the GI50 with UACC-257 was > 100 µM (inactive); with SF-295, > 100 µM (inactive); with HOP-92, > 100 µM (inactive); with OVCAR-5, > 100 µM (inactive); in the assay on HCT-15 it was greater than 100 µM; with A498, > 100 µM (inactive). Also, the GI50 in the assay on OVCAR-4, with HOP-62, with SW-620, in the assay on IGROV-1 and in the assay on SK-MEL-2 was > 100 µM (inactive) in each case.
On to `CN[C@@H](C)[C@H](NC)c1ccccc1`, for which the GI50 in the assay with NCI-H23, with LOX IMVI, with COLO 205, in the assay on Malme-3M, in the assay on CCRF-CEM and in the assay with HCT-116 was > 100 µM (inactive) each time. The GI50 is > 100 µM (inactive) with UACC-257; > 100 µM (inactive) in the assay on SF-295; > 100 µM (inactive) in the assay on HOP-92; 33.3 µM in the assay on HCT-15; > 100 µM (inactive) in the assay on SW-620; > 100 µM (inactive) with IGROV-1.
Consider `C[C@@H]1OC2(O)[C@H]3CCCN3S(=O)(=O)CCN2C1=O` (some centres undefined), for which the GI50 in the assay with NCI-H23, in the assay with LOX IMVI, in the assay with COLO 205, in the assay on Malme-3M, in the assay with CCRF-CEM and in the assay with HCT-116 was > 100 µM (inactive) throughout. The GI50 with UACC-257 is > 100 µM (inactive); in the assay with SF-295 it was > 100 µM (inactive); in the assay on HOP-92, > 100 µM (inactive); in the assay on OVCAR-5, > 100 µM (inactive); in the assay with HCT-15, greater than 100 µM; in the assay with A498, > 100 µM (inactive). Moreover, the GI50 with OVCAR-4, in the assay with HOP-62, in the assay with SW-620 and with IGROV-1 was > 100 µM (inactive) each time.
With `COC(=O)C(C(=O)C(=O)Nc1c(C)cccc1C)c1cnc2ccccc2n1` (centres undefined), the GI50 in the assay with NCI-H23, in the assay with LOX IMVI, in the assay with COLO 205, with Malme-3M, with CCRF-CEM and with HCT-116 was > 100 µM (inactive) in each case. In addition, the GI50 is > 100 µM (inactive) in the assay with UACC-257; > 100 µM (inactive) with SF-295; > 100 µM (inactive) in the assay on HOP-92; > 100 µM (inactive) in the assay with OVCAR-5; greater than 100 µM in the assay with HCT-15; > 100 µM (inactive) with A498. Moreover, the GI50 with OVCAR-4, in the assay on SW-620, with IGROV-1 and in the assay on SK-MEL-2 was > 100 µM (inactive) in each case.
In the case of `CCc1cccc(C)c1NC(=O)CC(=O)NNC(N)=S`, the GI50 in the assay on NCI-H23, in the assay with LOX IMVI, with COLO 205, in the assay on Malme-3M, in the assay with CCRF-CEM and with UACC-257 was > 100 µM (inactive) each time. Moreover, the GI50 is > 100 µM (inactive) with SF-295; > 100 µM (inactive) in the assay with HOP-92; > 100 µM (inactive) with OVCAR-5; greater than 100 µM in the assay with HCT-15; > 100 µM (inactive) in the assay with OVCAR-4; > 100 µM (inactive) in the assay on HOP-62. Moreover, the GI50 in the assay with SW-620 is > 100 µM (inactive).
For `CN(C)c1ccc2c(=O)c3ccccc3oc2n1`, the GI50 with NCI-H23, in the assay with LOX IMVI, with COLO 205, in the assay on Malme-3M, in the assay with CCRF-CEM and in the assay on UACC-257 was > 100 µM (inactive) each time. Besides, the GI50 in the assay with SF-295 was > 100 µM (inactive); in the assay with HOP-92, > 100 µM (inactive); in the assay with OVCAR-5, > 100 µM (inactive); in the assay on HCT-15, greater than 100 µM; in the assay with OVCAR-4, > 100 µM (inactive); with HOP-62, 56.6 µM (inactive). Besides, the values for the GI50 in the assay with SW-620, in the assay on IGROV-1 and with SK-MEL-2 were > 100 µM (inactive), 93.1 µM (inactive) and > 100 µM (inactive), respectively.
Turning to `COc1ccc(NC(=O)C(=O)Cc2nc3ccc([N+](=O)[O-])cc3nc2O)c(OC)c1`, the GI50 in the assay on NCI-H23 is > 100 µM (inactive); in the assay on LOX IMVI, 87.9 µM (inactive); in the assay with COLO 205, > 100 µM (inactive); in the assay on Malme-3M, > 100 µM (inactive); with CCRF-CEM, > 100 µM (inactive); in the assay on HCT-116 it was > 100 µM (inactive). For the same molecule, the GI50 in the assay on UACC-257 was > 100 µM (inactive); with SF-295 it was > 100 µM (inactive); in the assay with HOP-92, > 100 µM (inactive); with OVCAR-5, > 100 µM (inactive); with HCT-15, greater than 100 µM; in the assay on A498 it was 44.6 µM (inactive). The GI50 in the assay on OVCAR-4, in the assay with SW-620, in the assay on IGROV-1 and in the assay on SK-MEL-2 was > 100 µM (inactive) throughout.
With `CN(C)c1ccc(/C=C2\CNC/C(=C\c3ccc(N(C)C)cc3)C2=O)cc1`, the GI50 with NCI-H23 is > 100 µM (inactive); with LOX IMVI, 18.8 µM (inactive); in the assay on COLO 205, 45.1 µM (inactive); with Malme-3M, > 100 µM (inactive); with CCRF-CEM it was 25.8 µM (inactive); in the assay with HCT-116, 16 µM (inactive). The GI50 with UACC-257 is 22.5 µM (inactive); in the assay with SF-295, 76.4 µM (inactive); in the assay on HOP-92 it was 15.6 µM (inactive); with OVCAR-5, > 100 µM (inactive); in the assay on HCT-15, 4.46 µM; in the assay on A498, 17.6 µM (inactive). The results for the GI50 with OVCAR-4, in the assay with HOP-62 and in the assay with IGROV-1 were 13.3 µM (inactive), > 100 µM (inactive) and 22 µM (inactive), respectively.

The record behind these values is ChEMBL document CHEMBL1201862, “PubChem BioAssay data set” (2004).
